For data set [1] the following is noted: cited from earlier work.
Data set [2] in a line: Pharmacokinetic study in beagle dogs. As to conditions: for CL/F / Rel F(5 mg oral) / Tmax: beagle dogs; for Rel F(5 mg oral): relative to 5 mg oral; for AUC(0-inf) / AUC(0-t) / Cmax / MRT / half-life / Tmax: both, beagle, dog, plasma. As to the method: Eight beagle dogs (4 male and 4 female) participated in the study. […] Water was given ad libitum throughout the study. Food was provided 4 hours post-dose. Blood samples were collected at pre-dose (0 min) and at 3, 6, 9, 12, 15, 20, 30, 45 minutes; and at 1, 1.5, 2, 3, 4, 6, 8, 24 hours post-dose. After plasma-separation process, the samples were analyzed by a validated LC-MS/MS method.

For another data set, the system named is plasma proteins. As to conditions: cited from earlier work.
For data set [3] the following is noted: cited from earlier work. This is another data set of the same source.
Another data set has as its system toad palate. In words: Nasal ciliotoxicity evaluation, in-situ toad palate model. Type of data set: in vivo. The arrangement: key to Ciliotoxicity: no effect: cilia on the mucosa was intact, dense and beating actively; mild: less than 25% ciliostasis; moderate: cilia was disarranged or only partial cilia left; all cilia lost and apical cell border was severe deformed. The note with it: 0.2 ml, 4 h, light microscope 400×. As to the method: The nasal ciliotoxicity of zolpidem tartrate, solubilizing agents and several nasal solution formulations were investigated using an in-situ toad palate model. Briefly, 0.2 ml test formulations were administrated on a toad palate. […] The mucocilia was examined with a light microscope at enlargements of 400× (n=3˜6). Saline and a typical nasal mucociliary toxic agent—sodium deoxycholatee—were used as a negative and positive control, respectively. Study protocol was illustrated in Table 11, and the degree of ciliotoxicity caused by the test formulations was coarse classified as follows: “no effect”: cilia on the mucosa was intact, dense and beating actively; “mild”: less than 25% ciliostasis; “moderate”: cilia was disarranged or only partial cilia left; “severe”: all cilia lost and apical cell border was severe deformed.

Where [4] appears, read: intranasal administration (ZLP-B01), 1.25 mg/dog.
Where [5] appears, read: intranasal administration (ZLP-B01), 2.5 mg/dog.
Setting [6] is: intranasal administration (ZLP-B01), 5 mg/dog.

The source of these data is US8916583B2, “Therapeutic compositions for intranasal administration of zolpidem” (Renascence Therapeutics Limited, priority 2012, dated 2014).

Structures can show the parent of a compound that is named as a salt.

Turning to `Cc1ccc(-c2nc3ccc(C)cn3c2CC(=O)N(C)C)cc1` [Zolpidem tartrate], the aqueous solubility entry in data set [1] (at 20° C.) was “about 23 mg/ml”. Also, the “solubility in water” value in data set [1] (water) is on record as “slightly soluble”.

As a reminder, the CL/F is clearance divided by bioavailability, as obtained after extravascular dosing. The AUC(0-inf) is total exposure, with the tail of the curve extrapolated. By AUC(0-t) is commonly meant the area under the concentration-time curve up to a stated or last time point. One may read the Cmax as the highest concentration seen after dosing. In general, MRT refers to the average time that molecules of a dose stay in the body. The term half-life denotes how long it takes for the measured level to halve. The Tmax is the time from dosing to the highest level. Take `Cc1ccc(-c2nc3ccc(C)cn3c2CC(=O)N(C)C)cc1` [Zolpidem, N,N,6-trimethyl-2-(4-methylphenyl)-imidazo[1,2-a]pyridine-3-acetamide]: the CL/F was 110 ± 41 L/h in data set [2] (setting [4]); 144 ± 76 L/h in data set [2] (setting [5]); 181 ± 137 L/h in data set [2] (setting [6]); 204 ± 96 L/h in data set [2] (oral administration (marketed tablet, Stilnox), 5 mg/dog); 110 ± 69 L/h in data set [2] (oral administration (marketed tablet, Stilnox), 10 mg/dog). For the same compound, the “Rel F(5 mg oral)” value in data set [2] (setting [4]) turned out to be 167%; in data set [2] (setting [5]), 145%; in data set [2] (setting [6]) it was 124%. Also, the AUC(0-inf) stood at 12.9 ± 5.2 ng·h/mL in data set [2] (inhaled or intranasal, 1.25 mg); 22.4 ± 12.1 ng·h/mL in data set [2] (inhaled or intranasal, 2.5 mg); 38 ± 18.5 ng·h/mL in data set [2] (inhaled or intranasal, 5 mg); 30.7 ± 16.9 ng·h/mL in data set [2] (po, 5 mg); 121 ± 64.6 ng·h/mL in data set [2] (po, 10 mg). Besides, the AUC(0-t) in data set [2] (inhaled or intranasal, 1.25 mg) was 12.8 ± 5.24 ng·h/mL; in data set [2] (inhaled or intranasal, 2.5 mg) it was 22.2 ± 12.2 ng·h/mL; in data set [2] (inhaled or intranasal, 5 mg) it was 38 ng·h/mL; in data set [2] (po, 5 mg), 30.6 ng·h/mL; in data set [2] (po, 10 mg), 120 ± 64.4 ng·h/mL. For the same compound, the Cmax in data set [2] (inhaled or intranasal, 1.25 mg) was 13 ± 6.36 ng/mL; in data set [2] (inhaled or intranasal, 2.5 mg) it was 22 ± 13.1 ng/mL; in data set [2] (inhaled or intranasal, 5 mg) it was 33.3 ng/mL; in data set [2] (po, 5 mg), 25.5 ng/mL; in data set [2] (po, 10 mg), 128 ± 59.7 ng/mL. Besides, the MRT was 67.8 ± 10.8 min in data set [2] (inhaled or intranasal, 1.25 mg); 74.4 ± 49.8 min in data set [2] (inhaled or intranasal, 2.5 mg); 90 ± 19.8 min in data set [2] (inhaled or intranasal, 5 mg); 100 ± 27.6 min in data set [2] (po, 5 mg); 79.8 ± 18 min in data set [2] (po, 10 mg). Further, the half-life is 57 ± 10.8 min in data set [2] (inhaled or intranasal, 1.25 mg); 43.8 ± 13.8 min in data set [2] (inhaled or intranasal, 2.5 mg); 68.4 ± 11.4 min in data set [2] (inhaled or intranasal, 5 mg); 57.6 ± 10.2 min in data set [2] (po, 5 mg); 59.4 ± 12.6 min in data set [2] (po, 10 mg). Also, the Tmax in data set [2] (inhaled or intranasal, 1.25 mg, intranasal administration (ZLP-B01), 1.25 mg/dog) was 8.4 ± 1.8 min; in data set [2] (inhaled or intranasal, 2.5 mg, intranasal administration (ZLP-B01), 2.5 mg/dog) it was 8.4 ± 4.2 min; in data set [2] (inhaled or intranasal, 5 mg, intranasal administration (ZLP-B01), 5 mg/dog) it was 12.6 min; in data set [2] (inhaled or intranasal, 5 mg, range over dogs, intranasal administration, 5 mg/dog), 3 to 15 min; in data set [2] (po, 5 mg, oral administration (marketed tablet, Stilnox), 5 mg/dog), 41.4 min; in data set [2] (po, 5 mg, range over dogs, oral administration, 5 mg/dog) it was 19.8 to 120 min. In addition, in data set [2] (po, 10 mg, oral administration (marketed tablet, Stilnox), 10 mg/dog), the Tmax is 25.8 ± 11.4 min. Further, the “bound to plasma proteins” value in the data set on plasma proteins is on record as “about 92%”. For the same compound, the “time to peak plasma concentrations” value in data set [3] (after oral doses) is at most 3 h. Moreover, in data set [3] (in vivo), the elimination half-life result was “about 2.5 hours”. The absolute bioavailability result in data set [3] (oral, first-pass metabolism) was “about 70%”.

Regarding “sodium deoxycholate [1% sodium deoxycholate]”, in the data set with toad palate, the Ciliotoxicity result was “severe” and the Optical microscopic observation entry is “no cilia on the mucosa”.
